Measured values as given in US20110130388A1, “PROPHYLACTIC OR THERAPEUTIC AGENT FOR AXIAL MYOPIA” (priority 2008, published 2011).

Assays:
progress of myopia = conditions: reported in Taiwan; cited from earlier work
axial length extension = conditions: animal experiments; cited from earlier work
[1] = system: chicken model of form-deprivation myopia; assay: Axial length suppression test with chicken model of form-deprivation myopia (II), ophthalmic instillation; format: in vivo, chicks (white leghorn); conditions: hydroxyfasudil 500 nmol/1000 μL, 1 drop (about 5 μl) instilled once daily for 4 weeks, N = 10, * P < 0.05, t-test vs control
Excerpt: Chicken models of form-deprivation myopia were made in the same manner as in Example 1. That is, chicks (white leghorn) 6 days of age were obtained, and one eye of each chick was covered with a mask hand-made of vinyl tape. The right eye of every chick was covered, and the left eye was used as a control. The chicks were kept under usual breeding conditions.
As a Rho kinase inhibitor, hydroxyfasudil hydrochloride (made by SIGMA; see the above formula (III); hereinafter, abbreviated to “hydroxyfasudil”) was used. Hydroxyfasudil was dissolved in BSS Plus (registered trademark, made by Alcon) so that the concentration was 10 mM, and 50 μL of this solution was diluted with saline to 1000 μL. A hydroxyfasudil solution at a concentration of 500 nmol/1000 μL was thus prepared.
To chicks to which myopia was being induced by the mask, hydroxyfasudil was instilled once daily for 4 weeks. Specifically, 1 drop (about 5 μl) of the above-mentioned hydroxyfasudil solution was instilled with use of a syringe with needle for insulin subcutaneous administration, “Low Dose” 30 G (made by Becton, Dickinson and Company). The instillation was performed to the right eye and the left eye.
To the control, BSS Plus was intravitreally injected once a week (every 7 days). Specifically, the intravitreal injection was performed to a superotemporal site about 3 mm off the corneal ring avoiding cartilage tissue of the lens and sclera with use of the above-mentioned “Low Dose”. The injection to the right eye and the left eye was performed 4 times in total.
Four weeks after the induction of myopia, the chicks were sacrificed. The eyeballs were enucleated and the right eyeballs and the left eyeballs were measured for the size with a caliper. The degree of axial myopia was evaluated based on the axial length and the greatest transverse diameter. The differences of the axial length and the greatest transverse diameter between the right eye and the left eye were calculated to indicate the degree of myopia. Between the group treated with hydroxyfasudil and the control group, the degree of myopia induction was compared.

[2] = system: chicken model of form-deprivation myopia; assay: Axial length suppression test with chicken model of form-deprivation myopia (I), intravitreal injection; format: in vivo, chicks (white leghorn); conditions: hydroxyfasudil 20 μL intravitreally once a week (about 1 μM in the eye), four weeks after induction of myopia, N = 7, * P < 0.05 vs control
Excerpt: Chicks (white leghorn) 6 days of age were obtained, and one eye of each chick was covered with a mask hand-made of vinyl tape. The right eye of every chick was covered, and the left eye was used as a control. The chicks were kept under usual breeding conditions.
As a Rho kinase inhibitor, Y27632 dihydrochloride (made by Wako Pure Chemical Industries; see the above formula (I); hereinafter, abbreviated to “Y27632”) and hydroxyfasudil hydrochloride (made by SIGMA; see the above formula (III); hereinafter, abbreviated to “hydroxyfasudil”) were used. Y27632 was prepared at 50 μM in saline. Hydroxyfasudil was prepared at 1 mM in saline. To the control, saline was administered.
Into the vitreous chambers of the chicks to which myopia was being induced by the mask, Y27632 or hydroxyfasudil was injected once a week (every 7 days). Specifically, to the chicks under anesthesia with Ketalar (registered trademark) and Selactar (registered trademark), injection to a site about 2 mm off the corneal ring was performed with use of a syringe for insulin injection.
To the Y27632 treatment group, 50 μL of the 50 μM Y27632 solution was intravitreally injected. Since the chick eyeball volume is about 1 mL, the final concentration of Y27632 in the eye was about 2.5 μM. To a control group not treated with Y27632, 50 μL of saline was intravitreally injected.
To the hydroxyfasudil treatment group, 20 μL of a diluted hydroxyfasudil solution prepared by diluting 1 μL of the 1 mM hydroxyfasudil solution to 20 μL was intravitreally injected. Since the chick eyeball volume is about 1 mL, the final concentration of hydroxyfasudil in the eye was about 1 μM. To a control group not treated with hydroxyfasudil, 20 μL of saline was intravitreally injected.
Four weeks after the induction of myopia, the chicks were sacrificed. The eyeballs were enucleated and the right eyeball and the left eyeball were measured for the size with a caliper. The degree of axial myopia was evaluated based on the axial length and the greatest transverse diameter. The differences of the axial length and the greatest transverse diameter between the right eye and the left eye were calculated to indicate the degree of myopia. Between the groups treated with the above-mentioned drugs and the respective control groups, the degree of myopia induction was compared.

form-deprivation myopia = conditions: animal experiment level; cited from earlier work
myopia = conditions: 2-year clinical trial, children aged 8 to 12; cited from earlier work

SMILES: CN1[C@@H]2CC[C@H]1C[C@@H](OC(=O)C(CO)c1ccccc1)C2 (stereo partly shown) [Atropine]
- Progress of myopia (progress of myopia): statistically significant inhibition of the progress of myopia
- Axial length extension (axial length extension): suppresses axial length extension

SMILES: O=S(=O)(c1cccc2c(O)nccc12)N1CCCNCC1 [Hydroxyfasudil, 1-(1-hydroxy-5-isoquinolinesulfonyl)homopiperazine]
- Axial length, average right-left difference [1]: 0.61* mm
- Greatest transverse diameter, average right-left difference [1]: 0.91* mm
- Axial length, average right-left difference ([1]; listed as hydroxyfasudil): significantly reduced
- Greatest transverse diameter, average right-left difference ([1]; listed as hydroxyfasudil): significantly reduced
- Axial length, average right-left difference [2]: 0.37* mm
- Greatest transverse diameter, average right-left difference [2]: 0.48* mm
- Axial length, average right-left difference ([2]; listed as hydroxyfasudil): significantly reduced
- Greatest transverse diameter, average right-left difference ([2]; listed as hydroxyfasudil): significantly reduced

SMILES: CN1CCN(CC(=O)N2c3ccccc3C(=O)Nc3cccnc32)CC1 [Pirenzepine]
- Form-deprivation myopia (axial length extension) (form-deprivation myopia): prevented form-deprivation myopia
- Accommodative myopia (refraction of the lens) (myopia): significant difference
- Axial length (myopia): no significant difference
